According to patent US20220160842A1, “METHOD OF TREATING INFECTIVE ENDOCARDITIS” (priority 2019, published 2022):
Structures can show the parent of a compound that is named as a salt.

Assays:
Experiment in all cases: MIC by broth microdilution
S. aureus (MRSA) = format: cell-based, Staphylococcus aureus
Experimental: (§1) Minimal inhibitory concentrations (MICs) of exebacase against staphylococci were determined by broth microdilution (BMD) using a nonstandard antimicrobial susceptibility testing (AST) medium comprised of cation-adjusted Mueller Hinton broth (caMHB) supplemented with horse serum (Sigma Aldrich) and dithiothreitol (DTT; Sigma Aldrich) to final concentrations of 25% and 0.5 mM, respectively. This medium, referred to as caMHB-HSD, is approved for use in exebacase AST by the Clinical and Laboratory Standards Institute (CLSI) (CLSI. 2017, Jan. 16-17. AST Subcommittee Working Group Meetings and Plenary. AST Meeting Files & Resources, clsi.org/education/microbiology/ast/ast-meeting-files-resources/. Additional supplementation with 2.5% lysed red blood cells (Remel™, ThermoFisher) was included for analyses of streptococcal isolates, as recommended by CLSI. See CLSI, 2015. Methods for Dilution Antimicrobial Susceptibility Tests for Bacteria That Grow Aerobically, 10th Edition. Clinical and Laboratory Standards Institute, Wayne, Pa.
(§2) Daptomycin (Sigma Aldrich) and vancomycin hydrochloride (Sigma Aldrich) were tested following the reference BMD method for each. See CLSI. 2015. Methods for Dilution Antimicrobial Susceptibility Tests for Bacteria That Grow Aerobically, 10th Edition. Clinical and Laboratory Standards Institute, Wayne, Pa.

S. aureus (MSSA) = format: cell-based, Staphylococcus aureus
Experimental: as §1, §2

S. lugdunensis = format: cell-based, Staphylococcus lugdunensis
Experimental: as §1, §2

S. haemolyticus = format: cell-based, Staphylococcus haemolyticus
Experimental: as §1, §2

S. capitis = format: cell-based, Staphylococcus capitis
Experimental: as §1, §2

S. warneri = format: cell-based, Staphylococcus warneri
Experimental: as §1, §2

all staphylococci tested = format: cell-based
Experimental: as §2

S. anginosus = format: cell-based, Streptococcus anginosus
Experimental: as §1, §2

S. gordonii = format: cell-based, Streptococcus gordonii
Experimental: as §1, §2

S. mitis = format: cell-based, Streptococcus mitis
Experimental: as §1, §2

S. mutans = format: cell-based, Streptococcus mutans
Experimental: as §1, §2

S. oralis = format: cell-based, Streptococcus oralis
Experimental: as §1, §2

S. salivarius = format: cell-based, Streptococcus salivarius
Experimental: as §1, §2

S. sanguinis = format: cell-based, Streptococcus sanguinis
Experimental: as §1, §2

S. gallolyticus = format: cell-based, Streptococcus gallolyticus
Experimental: as §1, §2

S. pyogenes = format: cell-based, Streptococcus pyogenes
Experimental: as §1, §2

S. agalactiae = format: cell-based, Streptococcus agalactiae
Experimental: as §1, §2

S. dysgalactiae = format: cell-based, Streptococcus dysgalactiae
Experimental: as §1, §2

S. pneumoniae = format: cell-based, Streptococcus pneumoniae
Experimental: as §1, §2

E. faecalis = format: cell-based, Enterococcus faecalis
Experimental: as §1, §2

CN[C@H](CC(C)C)C(=O)N[C@H]1C(=O)N[C@@H](CC(N)=O)C(=O)N[C@H]2C(=O)N[C@H]3C(=O)N[C@H](C(=O)N[C@H](C(=O)O)c4cc(O)cc(O)c4-c4cc3ccc4O)[C@H](O)c3ccc(c(Cl)c3)Oc3cc2cc(c3O[C@@H]2O[C@H](CO)[C@@H](O)[C@H](O)[C@H]2O[C@H]2C[C@](C)(N)[C@H](O)[C@H](C)O2)Oc2ccc(cc2Cl)[C@H]1O [VAN, vancomycin hydrochloride]
1 µg/mL: MIC50 (S. aureus (MRSA); Staphylococcus aureus, MRSA) | MIC90 (S. aureus (MRSA); Staphylococcus aureus, MRSA) | MIC50 (S. aureus (MSSA); Staphylococcus aureus, MSSA) | MIC90 (S. aureus (MSSA); Staphylococcus aureus, MSSA) | MIC50 (S. lugdunensis; Staphylococcus lugdunensis) | MIC90 (S. lugdunensis; Staphylococcus lugdunensis) | MIC50 (S. haemolyticus; Staphylococcus haemolyticus) | MIC50 (S. capitis; Staphylococcus capitis) | MIC90 (S. capitis; Staphylococcus capitis) | MIC50 (S. warneri; Staphylococcus warneri) | MIC90 (S. anginosus; Streptococcus anginosus) | MIC90 (S. gordonii; Streptococcus gordonii) | MIC50 (S. mutans; Streptococcus mutans) | MIC90 (S. mutans; Streptococcus mutans) | MIC90 (S. oralis; Streptococcus oralis) | MIC50 (E. faecalis; Enterococcus faecalis)
0.25 µg/mL: MIC50 (S. gallolyticus; Streptococcus gallolyticus) | MIC50 (S. pneumoniae; Streptococcus pneumoniae)
0.5 to 1 µg/mL: MIC Range (S. aureus (MSSA); S. aureus (MSSA), N=73) | MIC Range (S. anginosus; S. anginosus (viridans), N=10) | MIC Range (S. gordonii; S. gordonii (viridans), N=11) | MIC Range (S. oralis; S. oralis (viridans), N=15)
0.5 to 4 µg/mL: MIC Range (S. haemolyticus; S. haemolyticus, N=36) | MIC Range (all staphylococci tested)
0.5 to 2 µg/mL: MIC Range (S. lugdunensis; S. lugdunensis, N=49) | MIC Range (S. capitis; S. capitis, N=13) | MIC Range (S. sanguinis; S. sanguinis (viridans), N=15) | MIC Range (E. faecalis; E. faecalis (formerly group D), N=18)
0.25 to 0.5 µg/mL: MIC Range (S. mitis; S. mitis (viridans), N=18) | MIC Range (S. salivarius; S. salivarius (viridans), N=12) | MIC Range (S. gallolyticus; S. gallolyticus (bovis), N=19) | MIC Range (S. pyogenes; S. pyogenes (group A), N=100) | MIC Range (S. agalactiae; S. agalactiae (group B), N=97) | MIC Range (S. pneumoniae; S. pneumoniae, N=59)
0.5 µg/mL: MIC50 (S. anginosus; Streptococcus anginosus) | MIC50 (S. gordonii; Streptococcus gordonii) | MIC50 (S. mitis; Streptococcus mitis) | MIC90 (S. mitis; Streptococcus mitis) | MIC50 (S. oralis; Streptococcus oralis) | MIC50 (S. salivarius; Streptococcus salivarius) | MIC90 (S. salivarius; Streptococcus salivarius) | MIC50 (S. sanguinis; Streptococcus sanguinis) | MIC90 (S. sanguinis; Streptococcus sanguinis) | MIC90 (S. gallolyticus; Streptococcus gallolyticus) | MIC50 (S. pyogenes; Streptococcus pyogenes) | MIC90 (S. pyogenes; Streptococcus pyogenes) | MIC50 (S. agalactiae; Streptococcus agalactiae) | MIC90 (S. agalactiae; Streptococcus agalactiae) | MIC50 (S. dysgalactiae; Streptococcus dysgalactiae) | MIC90 (S. dysgalactiae; Streptococcus dysgalactiae) | MIC90 (S. pneumoniae; Streptococcus pneumoniae)
1 to 2 µg/mL: MIC Range (S. aureus (MRSA); S. aureus (MRSA), N=74)
0.25 to 2 µg/mL: MIC Range (S. warneri; S. warneri, N=23)
2 µg/mL: MIC90 (S. haemolyticus; Staphylococcus haemolyticus) | MIC90 (S. warneri; Staphylococcus warneri) | MIC90 (E. faecalis; Enterococcus faecalis)
0.25 to 1 µg/mL: MIC Range (S. mutans; S. mutans (viridans), N=22) | MIC Range (S. dysgalactiae; S. dysgalactiae (group G), N=22)
